The source of these data is US4076931A, “Derivatives of an antibiotic XK-62-2 and the process for the production thereof” (Abbott Laboratories, priority 1974, dated 1978).

Values after ≈ are worked out from the molar mass of the structure shown. Like-named read-outs stand apart in the source and are kept apart here. Some results are limits rather than exact numbers.

Holding throughout (assay type): cell-based
The subject of assay [1] is Bacillus subtilis No. 10707. Put plainly: Minimum inhibitory concentration by agar dilution method, Bacillus subtilis No. 10707. From the text:
(§1) Table 1 illustrates minimum inhibitory concentration of 1-N-(α-hydroxy-δ-aminovaleryl)XK-62-2 and 1-N-(α-hydroxy-ε- aminocaproyl)XK-62-2 against various Gram-negative and Gram-positive bacteria determined by agar dilution method.
Background: Agar dilution tests growth on a series of plates holding different concentrations.

The subject of assay [2] is Klebsiella penumoniae ATCC 10031. Put plainly: Minimum inhibitory concentration by agar dilution method, Klebsiella penumoniae ATCC 10031. As to conditions: for MIC: ATCC10031.
Excerpt: as §1

Assay [3] concerns Pseudomonas aeruginosa BMH No. 1. Put plainly: Minimum inhibitory concentration by agar dilution method, Pseudomonas aeruginosa BMH No. 1. To be noted: for MIC: BMHNO.1.
Excerpt: as §1

The next assay relates to Escherichia coli KY 8327. Put plainly: Minimum inhibitory concentration by agar dilution method, Escherichia coli KY 8327. As to conditions: for MIC: KY8327; for antibacterial activity: Escherichia coli KY 8327, resistant to kanamycins and gentamicins, in words.
Excerpt: as §1
(§2) In the above Table 1, Escherichia coli KY 8327 and KY 8348 respectively produce adenyltransferase and acetyltransferase intracellularly; the former enzyme inactivates kanamycins and gentamicins by adenylation, and the latter inactivates gentamicins by acetylation.

For a further assay, the system named is Escherichia coli KY 8348. Put plainly: Minimum inhibitory concentration by agar dilution method, Escherichia coli KY 8348. As to conditions: for MIC: KY8348; for antibacterial activity: Escherichia coli KY 8348, resistant to known aminoglycoside antibiotics, in words.
Excerpt: as §1, §2

Assay [4] deals with Salmonella typhosa ATCC 9922. Put plainly: Minimum inhibitory concentration by agar dilution method, Salmonella typhosa ATCC 9922. To be noted: for MIC: Salmonella enterica, read-out: Minimum Inhibitory Concentration.
Excerpt: as §1

In the next assay the test system is Escherichia coli ATCC 26. Put plainly: Minimum inhibitory concentration by agar dilution method, Escherichia coli ATCC 26.
Excerpt: as §1

Assay [5] concerns Proteus vulgaris ATCC 6897. Put plainly: Minimum inhibitory concentration by agar dilution method, Proteus vulgaris ATCC 6897.
Excerpt: as §1

Assay [6] has as its system Staphylococcus aureus ATCC 6538P. Put plainly: Minimum inhibitory concentration by agar dilution method, Staphylococcus aureus ATCC 6538P. To be noted: for MIC: ATCC6538P.
Excerpt: as §1

Assay [7] deals with Shigella sonnel ATCC 9290. Put plainly: Minimum inhibitory concentration by agar dilution method, Shigella sonnel ATCC 9290. To be noted: for MIC: Shigella, ATCC9290, read-out: Minimum Inhibitory Concentration.
Excerpt: as §1

Assay [8] concerns Escherichia coli strains having R factors. Put plainly: Antibacterial activity against Escherichia coli strains having R factors. To be noted: resistant to known aminoglycoside antibiotics, in words.
Excerpt: as §1

Setting [9] is: Escherichia coli KY 8327 (produces adenyltransferase), agar dilution method.
Setting [10] is: Escherichia coli KY 8348 (produces acetyltransferase), agar dilution method.

On to `CNC[C@@H]1CC[C@@H](N)[C@@H](O[C@H]2[C@H](O)[C@@H](O[C@H]3OC[C@](C)(O)[C@H](NC)[C@H]3O)[C@H](N)C[C@@H]2N)O1` [XK-62-2], for which the MIC in [1] is below 0.004 µg/mL; in assay [2], below 0.004 µg/mL; in assay [3], 0.13 µg/mL (≈ 0.28 µM); with Escherichia coli KY 8327 (setting [9]) it was 1.04 µg/mL (≈ 2.24 µM); in the assay on Escherichia coli KY 8348 (setting [10]), 1.04 µg/mL (≈ 2.24 µM); in assay [4], 0.008 µg/mL (≈ 0.0173 µM). For the same compound, the MIC with Escherichia coli ATCC 26 (Escherichia coli, ATCC26, read-out: Minimum Inhibitory Concentration) is 0.016 µg/mL (≈ 0.0345 µM); in assay [5] (Proteus vulgaris, ATCC6897, read-out: Minimum Inhibitory Concentration) it was 0.016 µg/mL (≈ 0.0345 µM); in assay [6] it was below 0.004 µg/mL; in assay [7], 0.033 µg/mL (≈ 0.0712 µM).

`CNC[C@@H]1CC[C@@H](N)[C@@H](O[C@H]2[C@H](O)[C@@H](O[C@H]3OC[C@](C)(O)[C@H](NC)[C@H]3O)[C@H](NC(=O)[C@@H](O)CCCN)C[C@@H]2N)O1` [1-N-[L-(-)-α-hydroxy-δ-aminovaleryl]XK-62-2]: the MIC is below 0.004 µg/mL in [1]; 0.008 µg/mL (≈ 0.0138 µM) in [2]; 0.52 µg/mL (≈ 0.899 µM) in [3]; 0.065 µg/mL (≈ 0.112 µM) against Escherichia coli KY 8327 (setting [9]); 0.033 µg/mL (≈ 0.057 µM) with Escherichia coli KY 8348 (setting [10]); 0.016 µg/mL (≈ 0.0276 µM) in assay [4]. Further, the MIC in the assay with Escherichia coli ATCC 26 (ATCC26, Escherichia coli ATCC 26, agar dilution method, read-out: Minimum Inhibitory Concentration) was 0.033 µg/mL (≈ 0.057 µM); in [5] (ATCC6897, Proteus vulgaris ATCC 6897, agar dilution method, read-out: Minimum Inhibitory Concentration) it was 0.065 µg/mL (≈ 0.112 µM); in [6], 0.008 µg/mL (≈ 0.0138 µM); in assay [7], 0.065 µg/mL (≈ 0.112 µM). Also, the antibacterial activity entry in the assay with Escherichia coli KY 8327 is “very strong antibacterial activity”; with Escherichia coli KY 8348, “very strong antibacterial activity”; in assay [8] it was “strong antibacterial activity”.

On to “1-N-[L-(-)-α-hydroxy-ε-aminocaproyl]XK-62-2”, for which the “Minimum Inhibitory Concentration” value amounted to 0.008 µg/mL in assay [1]; 0.033 µg/mL in assay [2]; 4.17 µg/mL in assay [3]; 0.013 µg/mL in the assay with Escherichia coli KY 8327 (setting [9]); 0.065 µg/mL in the assay with Escherichia coli KY 8348 (setting [10]); 0.065 µg/mL in assay [4] (Salmonella typhosa ATCC 9922, agar dilution method). Besides, the “Minimum Inhibitory Concentration” value in the assay with Escherichia coli ATCC 26 (Escherichia coli ATCC 26, agar dilution method) was 0.13 µg/mL; in assay [5] (Proteus vulgaris ATCC 6897, agar dilution method), 0.26 µg/mL; in [6] it was 0.033 µg/mL; in assay [7] (Shigella sonnel ATCC 9290, agar dilution method), 0.26 µg/mL. In addition, the antibacterial activity entry is reported as “very strong antibacterial activity” in the assay with Escherichia coli KY 8327, “very strong antibacterial activity” in the assay with Escherichia coli KY 8348 and “strong antibacterial activity” in assay [8].
